Experimental data from US9474278B2, “Biocidal compositions and methods of use” (Dow Global Technologies LLC, priority 2011, dated 2016).

Columns and labels:
[1] = test system: Staphylococcus aureus ATCC 6538, Enterobacter aerogenes ATCC 13048, and Escherichia coli ATCC 8739; assay: Biocidal efficacy: minimum biocide concentration for 99.9% bacterial kill in inoculated salt solution with re-challenges; type: cell-based; details: alone or in the combination, 37° C.
Experimental: (§1) The synergy indexes reported in the following examples are calculated using the following equation: Synergy Index=Ca/CA+Cb/CB
Ca: Concentration of biocide A required to achieve a certain level of bacterial kill when used in combination with B.
CA: Concentration of biocide A required to achieve a certain level of bacterial kill when used alone.
Cb: Concentration of biocide B required to achieve a certain level of bacterial kill when used in combination with A.
CB: Concentration of biocide B required to achieve a certain level of bacterial kill when used alone.
(§2) A synergy index (SI) of 1 indicates additivity, a synergy index of less than 1 indicates synergy, and a synergy index greater than 1 indicates antagonism.
A sterile salt solution (0.2203 g of CaCl2, 0.1847 g of MgSO4, and 0.2033 g of NaHCO3 in 1 L water) is inoculated with approximately 10^7 CFU/mL of Staphylococcus aureus ATCC 6538, Enterobacter aerogenes ATCC 13048, and Escherichia coli ATCC 8739. Aliquots of the cell suspension are then treated with THPS, BIT, and combinations of these actives at selected concentrations and incubated at 37° C. for 14 days. After incubation for 24 hours, 3 days, and 7 days, the aliquots are re-challenged with bacterial suspension of the same bacteria at a final bacterial concentration of 10^5 CFU/mL. The biocidal efficacy is measured at 2 hours and 14 days by determining the minimum biocide concentration for 99.9% bacterial kill in the aliquots. Synergy Index is then calculated. Table 1 and 2 summarize the efficacy of each biocide and their combinations at 2 hour and 14 day treatment time respectively, and the resulting Synergy Index of each combination.

[2] = test system: Candida albican, ATCC #10231; assay: 96 well micro titer plate MIC / synergy assay in SDB; type: cell-based; details: alone or in the combination, 48 hours
Experimental: as §1, §2

Compound: O=c1[nH]sc2ccccc12 [BIT, 1,2-benzisothiazolin-3-one]
- Concentration (ppm active) for 99.9% bacterial kill in 2 hours, BIT ([1]; BIT concentration, 2 hour treatment): >300 ppm active
- Concentration (ppm active) for 99.9% bacterial kill in 14 days, BIT ([1]; BIT concentration, 14 day treatment, re-challenged at 24 hours, 3 days, 7 days): 150 ppm active

Compound: Cn1sc2ccccc2c1=O [MBIT, 2-methyl-1,2-benzisothiazolin-3-one]
- Minimum Inhibitory Concentration against Candida albican (ppm), MBIT ([2]; MBIT concentration): 0.375 ppm

Compound: tetrakis (hydroxymethyl) phosphonium sulfate [THPS]
- Minimum Inhibitory Concentration against Candida albican (ppm), THPS ([2]; THPS concentration): 1000 ppm
- Concentration (ppm active) for 99.9% bacterial kill in 2 hours, THPS ([1]; THPS concentration, 2 hour treatment): 38 ppm active
- Concentration (ppm active) for 99.9% bacterial kill in 14 days, THPS ([1]; THPS concentration, 14 day treatment, re-challenged at 24 hours, 3 days, 7 days): >300 ppm active
